Reference: EP0032708A1, “Tryptophan derivative, process for preparing same and a pharmaceutical composition containing such derivative” (Tanabe Seiyaku Co., Ltd., priority 1980, dated 1981)

Columns and labels:
male SD rats = assay: Hypolipidemic activity (test compound in diet of rats for one week; serum lipids and liver weight); format: in vivo; conditions: test compound 0.10 w/w % in diet for one week
Procedure: (i) Hypolipidemic activity:
A test compound (0.10 w/w %) was added to a commercial diet, and male SD rats (body weight: 120 - 140 g , a group of 6 rats) were maintained on the diet for one week. After the experimental period, blood was collected from the tail vein of the rats under ether anesthesia. Thereafter, the liver was excised and weighed. Serum cholesterol and serum triglyceride were measured according to the methods of Zak (Amer. J. Clin. Pathol., Vol. 24, page 1307 (1954)) and Van Handel Zilversmit (J. Lab. & Clin. Med., Vol. 50, page 152 (1957)), respectively. Then, the increase (%) in liver weight and the decrease (%) in serum cholesterol or triglyceride were calculated according to the following formulae: [formula] [formula]

rat brain homogenate = assay: Preventive effect on lipid peroxide formation (thiobarbituric acid colorimetric method); format: biochemical; conditions: 10 % rat brain homogenate, pH 7.4, 30-minute incubation at 37°C
Procedure: (ii) Preventive effect on lipid peroxide formation: An ethanol solution containing 10^-3 or 10-^4 M of a test compound was added to a mixture of 2.4 ml of 0.067 M potassium phosphate buffer solution (pH 7.4) and 0.5 ml of 10 % rat brain homogenate to adjust the final volume of the mixture to 3 ml. After 30-minute incubation of the mixture at 37°C, one ml of 20 % trichloroacetic acid was added thereto, and lipid peroxide formation was determined by the thiobarbituric acid colorimetric method (J. Robak et al., Viochem. Pharmacol., Vol. 25, page 2233 (1976). Suppression (%) of lipid peroxide formation of the test compound was calculated according to the following formula: [formula] • Note: ^* : group containing the test compound ^** : group containing an equal volume of ethanol instead of the test compound solution ΔOD was calculated as [(optical density measured at 532 nm) - (optical density measured at 600 nm)]

Structure (SMILES) | Decrease (%) in serum triglyceride (male SD rats) [%] | Decrease (%) in serume cholesterol (male SD rats) [%] | Increase (%) in liver weight (male SD rats) [%] | Suppression (%) in lipid peroxide formation (rat brain homogenate; Dose 10^-3M, 1000 µM) [%] | Suppression (%) in lipid peroxide formation (rat brain homogenate; Dose 10^-4M, 100 µM) [%]
CCOC(=O)C(C)(C)Oc1ccc(Cl)cc1 [Clofibrate, 2-(4-chlorophenoxy)-2-methylpropanoic acid ethyl ester, reference compound] | 34 | 26 | 14 | 24.3 | 0.5
Cn1cc(C[C@H](NC(=O)SCc2ccccc2)C(=O)O)c2ccccc21 [N^1-methyl-Hα-benzylthiocarbonyl-L-tryptophan] | 30 | 15 | 5 | 65.2 | 9.0
Cc1ccc(CSC(=O)N[C@@H](Cc2c[nH]c3ccccc23)C(=O)O)cc1 [Nα-(4-methylbenzylthiocarbonyl)-L-tryptophan] | 48 | 14 | 0 | 72.7 | 10.2
